Measurements reported in patent US20260207563A1, “UREA COMPOUNDS AS ACTIVATORS OF POTASSIUM CHANNELS KV7.2/7.3 USEFUL IN THE TREATMENT OF CNS AND PNS DISORDERS” (ANGELINI PHARMA S.P.A., priority 2022, published 2026).

Assays:
Assay type in all cases: cell-based
[1] = target: T1, homomeric KV7.4 channel (KCNQ4) (Homo sapiens, UniProt P56696); experiment: Automated patch-clamp (Qube) counter-screening assay against KV7.4 channel; settings: CHO-K1 cells expressing KV7.4; class by maximal shift in the Vhalf at 30 μM
T1 construct: host or cells: CHO-K1
Procedure, shortened: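 EC50 and maximal shift in half-activation voltage come from 4-parameter logistic fits of mean Vhalf shifts. The series had ten 1-in-3 concentrations, highest 30 μM, each tested in quadruplicate. Recordings used automated Qube patch clamp on a stable CHO-K1 line expressing KCNQ4, and selectivity was judged from the 30 μM Vhalf shift.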

[2] = target: T2, heteromeric KV7.3/KV7.5 channel (KCNQ3, KCNQ5) (Homo sapiens, UniProt O43525+Q9NR82); experiment: Automated patch-clamp counter-screening against KV7.3/KV7.5 channel; settings: HEK293 cells expressing Kv7.3/KV7.5; class by maximal shift in the Vhalf at 30 μM
T2 construct: host or cells: HEK293
Procedure, shortened: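 Potency came from a 4-parameter logistic fit of mean voltage-of-half-activation shifts, yielding EC50 and maximal shift; selectivity was judged on the shift at 30 μM. Compounds were applied at ten 3-fold dilutions from 30 μM in quadruplicate to HEK293 cells stably carrying Kv7.3 with tet-inducible Kv7.5.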

[3] = target: T3, heteromeric KV7.2/KV7.3 channels (KCNQ2, KCNQ3) (Homo sapiens, UniProt O43525+O43526); experiment: Automated patch-clamp (Sophion Qube 384) potency assay against KV7.2/KV7.3 channels; settings: CHO-K1/Kv7.2/Kv7.3 cells; for EC50: EC50 from concentration-response of shift in Vhalf, 10 concentrations up to 30 μM, read-out: Kv7.2/7.3 EC50; for Kv7.2/7.3 ΔV1/2: maximal shift in the Vhalf from the top of the curve
T3 construct: expressed in transfected cells; host or cells: CHO-K1
Procedure, shortened: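 Activator potency: EC50 from 4-parameter logistic fit of mean Vhalf shift across ten 1-in-3 dilutions starting at 30 μM (n=4), with DMSO (typically 0.3%) control. Currents recorded by leak-subtracted whole-cell clamp of stable CHO-K1 KV7.2/KV7.3 cells, held at −80 mV, stepped −100 to +20 mV then 0 mV tails.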

Row | Compound | Kv7.4 selectivity criteria [1] | Kv7.3/7.5 selectivity criteria [2] | EC50 [3] [nM] | Kv7.2/7.3 ΔV1/2 [3] [mV]
1 | O=C(NCc1ccnc(OCC(F)(F)F)c1)N[C@@H]1CCc2c(Cl)cccc21 [Compound 121] | B (Non-selective compounds showed Kv7.4 and/or Kv7.3/7.5 ΔV1/2 higher than 15 mV (letter B in table 3)) | B (Non-selective compounds showed Kv7.4 and/or Kv7.3/7.5 ΔV1/2 higher than 15 mV (letter B in table 3)) | 1560 | 38.54
2 | O=C(NCc1ccnc(C(F)(F)F)c1)N[C@H]1CCc2ccc(F)cc21 [Compound 94] | A (Selective compounds showed Kv7.4 and/or Kv7.3/7.5 ΔV1/2 equal to or lower than 15 mV (letter A in table 3)) | A (Selective compounds showed Kv7.4 and/or Kv7.3/7.5 ΔV1/2 equal to or lower than 15 mV (letter A in table 3)) | 4170 | 13.23
3 | O=C(NCc1cccc(F)c1)NCc1ccnc(OCC(F)(F)F)c1 [Compound 42, 1-(3-Fluorobenzyl)-3-((2-(2,2,2-trifluoroethoxy)pyridin-4-yl)methyl)urea] | A (Selective compounds showed Kv7.4 and/or Kv7.3/7.5 ΔV1/2 equal to or lower than 15 mV (letter A in table 3)) | A (Selective compounds showed Kv7.4 and/or Kv7.3/7.5 ΔV1/2 equal to or lower than 15 mV (letter A in table 3)) | 872 | 16.7
4 | COc1ccc2c(c1)OC[C@H]2NC(=O)NCc1ccnc(OCC(F)(F)F)c1 [Compound 166] | A (Selective compounds showed Kv7.4 and/or Kv7.3/7.5 ΔV1/2 equal to or lower than 15 mV (letter A in table 3)) | A (Selective compounds showed Kv7.4 and/or Kv7.3/7.5 ΔV1/2 equal to or lower than 15 mV (letter A in table 3)) | 8430 | 52.09
5 | C[C@H](NC(=O)NCCC1(C(F)(F)F)CC1)c1ccnc(OCC(F)(F)F)c1 [Compound 67, (S)-1-(1-(2-(2,2,2-Trifluoroethoxy)pyridin-4-yl)ethyl)-3-(2-(1-(trifluoromethyl)cyclopropyl)ethyl)urea] | A (Selective compounds showed Kv7.4 and/or Kv7.3/7.5 ΔV1/2 equal to or lower than 15 mV (letter A in table 3)) | A (Selective compounds showed Kv7.4 and/or Kv7.3/7.5 ΔV1/2 equal to or lower than 15 mV (letter A in table 3)) | 5000 | 23.87
6 | CC(F)(F)c1cc(CNC(=O)N[C@@H]2CCc3ccc(F)cc32)ccn1 [Compound 124] | A (Selective compounds showed Kv7.4 and/or Kv7.3/7.5 ΔV1/2 equal to or lower than 15 mV (letter A in table 3)) | A (Selective compounds showed Kv7.4 and/or Kv7.3/7.5 ΔV1/2 equal to or lower than 15 mV (letter A in table 3)) | 11700 | 18.78
7 | O=C(NCc1ccnc(OCC(F)(F)F)c1)N[C@@H]1COc2ccccc21 [Compound 133] | A (Selective compounds showed Kv7.4 and/or Kv7.3/7.5 ΔV1/2 equal to or lower than 15 mV (letter A in table 3)) | B (Non-selective compounds showed Kv7.4 and/or Kv7.3/7.5 ΔV1/2 higher than 15 mV (letter B in table 3)) | 2800 | 34.47
8 | CC(C)(C)[C@@H](O)CNC(=O)NCc1ccnc(OCCC(F)(F)F)c1 [Compound 78, (R)-1-(2-Hydroxy-3,3-dimethylbutyl)-3-((2-(3,3,3-trifluoropropoxy)pyridin-4-yl)methyl)urea] | A (Selective compounds showed Kv7.4 and/or Kv7.3/7.5 ΔV1/2 equal to or lower than 15 mV (letter A in table 3)) | A (Selective compounds showed Kv7.4 and/or Kv7.3/7.5 ΔV1/2 equal to or lower than 15 mV (letter A in table 3)) | 11700 | 19.21
9 | O=C(NCc1ccnc(OCC(F)(F)F)c1)NC1CSc2ccccc2C1 (stereo not drawn) [Compound 149] | A (Selective compounds showed Kv7.4 and/or Kv7.3/7.5 ΔV1/2 equal to or lower than 15 mV (letter A in table 3)) | A (Selective compounds showed Kv7.4 and/or Kv7.3/7.5 ΔV1/2 equal to or lower than 15 mV (letter A in table 3)) | 618 | 30.8
10 | O=C(NCCC1(C(F)(F)F)CC1)N1CCC[C@H]1c1ccnc(OCC(F)(F)F)c1 [Compound 106] | A (Selective compounds showed Kv7.4 and/or Kv7.3/7.5 ΔV1/2 equal to or lower than 15 mV (letter A in table 3)) | A (Selective compounds showed Kv7.4 and/or Kv7.3/7.5 ΔV1/2 equal to or lower than 15 mV (letter A in table 3)) | 2840 | 28.47
11 | C[C@H](Oc1cc(CNC(=O)NCCC2(C(F)(F)F)CC2)ncn1)C(F)(F)F [Compound 96] | A (Selective compounds showed Kv7.4 and/or Kv7.3/7.5 ΔV1/2 equal to or lower than 15 mV (letter A in table 3)) | A (Selective compounds showed Kv7.4 and/or Kv7.3/7.5 ΔV1/2 equal to or lower than 15 mV (letter A in table 3)) | 6610 | 25.66
12 | C[C@H](Oc1nccc(CNC(=O)NCCC2(C(F)(F)F)CC2)n1)C(F)(F)F [Compound 98] | A (Selective compounds showed Kv7.4 and/or Kv7.3/7.5 ΔV1/2 equal to or lower than 15 mV (letter A in table 3)) | A (Selective compounds showed Kv7.4 and/or Kv7.3/7.5 ΔV1/2 equal to or lower than 15 mV (letter A in table 3)) | 5140 | 22.14
13 | COc1cc2c(cc1F)CCC2NC(=O)NCc1ccnc(OCC(F)(F)F)c1 (stereo not drawn) [Compound 125] | A (Selective compounds showed Kv7.4 and/or Kv7.3/7.5 ΔV1/2 equal to or lower than 15 mV (letter A in table 3)) | A (Selective compounds showed Kv7.4 and/or Kv7.3/7.5 ΔV1/2 equal to or lower than 15 mV (letter A in table 3)) | 683 | 18.25
14 | O=C(NCc1ccnc(OC(F)F)c1)N[C@@H]1CCc2ccc(F)cc21 [Compound 153] | B (Non-selective compounds showed Kv7.4 and/or Kv7.3/7.5 ΔV1/2 higher than 15 mV (letter B in table 3)) | B (Non-selective compounds showed Kv7.4 and/or Kv7.3/7.5 ΔV1/2 higher than 15 mV (letter B in table 3)) | 1600 | 47.43
15 | O=C(NCc1ccnc(OCC(F)(F)F)n1)NCC1CCCCC1 [Compound 107] | A (Selective compounds showed Kv7.4 and/or Kv7.3/7.5 ΔV1/2 equal to or lower than 15 mV (letter A in table 3)) | A (Selective compounds showed Kv7.4 and/or Kv7.3/7.5 ΔV1/2 equal to or lower than 15 mV (letter A in table 3)) | 3060 | 20.76
16 | O=C(NCc1ccnc(OCC(F)(F)F)c1)N[C@@H]1CCc2cc(F)c(F)cc21 [Compound 119] | A (Selective compounds showed Kv7.4 and/or Kv7.3/7.5 ΔV1/2 equal to or lower than 15 mV (letter A in table 3)) | B (Non-selective compounds showed Kv7.4 and/or Kv7.3/7.5 ΔV1/2 higher than 15 mV (letter B in table 3)) | 1080 | 36.41
17 | O=C(NCc1ccnc(OCC(F)(F)F)c1)NC1CCc2c(F)cc(F)cc21 (stereo not drawn) [Compound 135] | A (Selective compounds showed Kv7.4 and/or Kv7.3/7.5 ΔV1/2 equal to or lower than 15 mV (letter A in table 3)) | A (Selective compounds showed Kv7.4 and/or Kv7.3/7.5 ΔV1/2 equal to or lower than 15 mV (letter A in table 3)) | 351 | 22.58
18 | C#CCOc1cc(CNC(=O)NCC2CCC(F)(F)CC2)ccn1 [Compound 161] | A (Selective compounds showed Kv7.4 and/or Kv7.3/7.5 ΔV1/2 equal to or lower than 15 mV (letter A in table 3)) | A (Selective compounds showed Kv7.4 and/or Kv7.3/7.5 ΔV1/2 equal to or lower than 15 mV (letter A in table 3)) | 7000 | 26.66
